The values below come from US11529323B2 (priority 2017, dated 2022).

The structures appear in SMILES notation.

The subject of one data set is IL-6. Kind of data set: Serum IL-6 ELISA, Study 2. Type of data set: in vivo, mouse. The note with it: Study 2 terminal serum; AR-42 10 mg/kg. From the text:
FIG. 4A is a table showing multiplex analysis of diverse serum cytokines in terminal samples from Study 2. Presented cytokines are limited to those showing significant differences from tumor-bearing vehicle-treated controls. G-CSF: granulocyte colony-stimulating factor, GM-CSF: granulocyte macrophage colony-stimulating factor, IL-6: interleukin-6, IL-17: interleukin-17, IP-10: interferon gamma-induced protein 10, KC: chemokine (C-X-C motif) ligand 1, LIF: leukemia inhibitory factor, M-CSF: macrophage colony-stimulating factor. FIG. 4B is a bar graph showin ELISA analysis of serum IL-6 levels in terminal samples from Study 2. ND, not detected. FIG. 4C is a plot showing individual animal serum IL-6 values as determined in A plotted against tumor-corrected terminal bodyweights from Study 2 (Pearson's Correlation). […] FIG. 4E is a plot showing spleen weights normalized to tumor-corrected terminal body weights of mice from Study 2. FIG. 4F is a bar graph showing ELISA analysis of STAT3 within C-26 tumors from Study 2. […]
Serum cytokine panel analyses were performed by a commercial vendor (Eve Technologies, Calgary, Canada) as previously described. Serum interleukin-6 (IL-6) was measured using a commercial ELISA kit (R&D Systems, Minneapolis, Minn., USA) according to the manufacturer's instructions.
Background: An ELISA detects its analyte on a solid surface through an enzyme-linked reagent.

The subject of data set [1] is C-26 colon adenocarcinoma cachexia model. Kind of data set: Combined androgen and AR-42 study (Study 3), C-26 model. It is filed as in vivo, mouse. The protocol: (§1) These studies were performed as previously described (Tseng Y C, et al. J Natl Cancer Inst. 2015 107(12):djv274) with modifications. Tumors were established in the right flank by subcutaneous injection of C-26 cells (0.5×10^6 cells in 0.1 mL). […] TFM-4AS-1 (a potent experimental SARM), dihydrotestosterone (DHT) and vehicles were administered by subcutaneous injection.
Six days after cell injection, animals with palpable tumors were treated once daily for 13 days with vehicles for AR-42 and TFM-4AS-1/DHT (n=9), AR-42 (10 mg/kg; TFM-4AS-1/DHT vehicle; n=10), TFM-4AS-1 (10 mg/kg; AR-42 vehicle; n=9), DHT (3 mg/kg; AR-42 vehicle; n=10), the combination of AR-42 and TFM-4AS-1 (10 mg/kg each; n=9), or the combination of AR-42 (10 mg/kg) and DHT (3 mg/kg)(n=10). Grip strength was measured and tissues collected as in the previous studies.
(§2) Forelimb grip strength was measured using Bio-GS3 Grip Strength Test Meter (Forceleader DBA Bioseb, Pinellas Park, Fla.). Each mouse was held by the base of its tail and lowered over the apparatus until its forepaws grasped the metal pull bar. The mouse was then gently pulled horizontally in a straight line away from the grip strength meter until the mouse released the bar. The force applied to the bar at the moment of release was recorded as the peak force. Five measurements were taken from each mouse, the average of which was designated as the mouse's grip strength.

Data set [2] shares this test system. Kind of data set: Confirmatory AR-42/GTx-024 combination study (Study 2), C-26 model. Type of data set: in vivo, mouse. How it is done:
as §1
This confirmatory study was performed exactly as Study 1 with expanded animal numbers. Tumor-free control groups were maintained at 6 animals each, whereas 10 animals were included in each of the tumor-bearing groups. […] Grip strength was measured on study days 0 (baseline) and 16. Due to rapid model progression, this study was terminated after only 12 days of treatment.
as §2

The conditions of data set [3]: Sborov et al. 2017; cited from earlier work.
A short description of data set [4]: Single dose AR-42 plasma and tissue pharmacokinetics in mouse. It is filed as in vivo. As to conditions: for Plasma exposure: tumor-free mice. How it is done:
FIG. 1A is a graph showing results of a single dose AR-42 plasma and tissue pharmacokinetic study. Tumor-free […] mice were administered a single dose of 10 mg/kg, 20 mg/kg or 50 mg/kg AR-42 (n=3) and plasma (dashed) and gastrocnemius (solid) tissue analyzed for AR-42 content at different times using LC-MS/MS analyses according to Materials and Methods (Mean±SD). FIG. 1B is a graph showing AR-42 dose-response. Starting six days after C-26 cell injection, animals received vehicle or AR-42 orally at 10 or 20 mg/kg daily or 50 mg/kg every other day for 13 days (n=4-6). Day 18 bodyweights compared to Day 0, corrected for tumor mass according to the Materials and Methods. Bars represent mean±SD. *p<0.05, ****p<0.0001 versus tumor-bearing vehicle-treated controls, Tukey's multiple comparison test. FIG. 1C is a table showing AR-42's in vitro human HDAC inhibition profile determined using recombinant enzymatic assays. […] Longitudinal mean bodyweights per treatment group are presented as a percent change from pre-study body weights. Tumor-free animals (circles), tumor-bearing animals (bars). Inset: terminal tumor volumes (mean+SD, n=5-6 per group).
Pharmacokinetic studies were performed as previously described (Cheng H et al. AAPS J. 2016 18(3):737-45).
Pharmacokinetic studies were performed as previously described (Cheng H, et al. AAPS J. 2016 18(3):737-45) with the following modifications. Seven week-old, male, tumor-free CD2F1 mice (n=3 per dose and time point) were administered single oral doses of 10, 20 and 50 mg/kg AR-42 and then sacrificed 0.25, 4 and 24 hours later. Fifty mg of gastrocnemius muscle tissue was flash frozen in 2 mL Beadblaster™ 24 (MIDSCl; St. Louis, Mo.) tubes and stored at −80° C. Samples were homogenized for 6-cycles using a Beadblaster 24 with analytical standards in 1 mL methanol and then centrifuged at 13,000 rpm (4° C.) for 10 min. Supernatants were transferred to glass tubes, dried under nitrogen, then reconstituted in 200 μL 40% methanol/0.1% formic acid. Plasma preparation and LC-MS/MS analyses were performed as previously described (Sborov D W, et al. Leuk Lymphoma 2017 58(10):2310-8). Mouse plasma and muscle pharmacokinetic parameters were estimated as previously described with the exception of Cavg which was calculated as AUCall/[Dosing Interval(h)].

On to `CC(C)[C@H](C(=O)Nc1ccc(C(=O)NO)cc1)c1ccccc1` [AR-42, (S)—N-hydroxy-4-(3-methyl-2-phenylbutanamido)benzamide], for which the “circulating IL-6 levels (ELISA)” value in the data set with IL-6 is “did not affect circulating IL-6 levels”. Besides, in data set [1] (Study 3, Day 17, of baseline, C-26 tumor-bearing, AR-42 10 mg/kg oral, TFM-4AS-1 10 mg/kg s.c., DHT 3 mg/kg s.c.), the terminal body weight is recorded as 93.5±4.8. The “effect on mass of gastrocnemius or quadriceps” value in data set [1] (Study 3, monotherapy (TFM-4AS-1 10 mg/kg; AR-42 10 mg/kg)) is listed as “did not significantly impact skeletal muscle masses”. Moreover, in data set [2] (Study 1 and 2, C-26 tumor-bearing, normalized to tumor-corrected terminal body weight), the spleen mass result was “either unchanged or slightly increased”. For the same compound, the forelimb grip strength entry in data set [2] (Study 2, day 16, C-26 tumor-bearing) was “improved grip strength over vehicle-treated tumor-bearing controls”. The “adipose or heart mass” value in data set [2] (Study 2, AR-42 10 mg/kg) was “had no impact on adipose or heart mass”. Further, the “effect on gastrocnemius and quadriceps mass” value in data set [2] (Study 2, C-26 tumor-bearing, versus vehicle-treated tumor-bearing controls) is “significantly spared gastrocnemius and quadriceps mass”. Moreover, the “well tolerated plasma exposure in humans” value in data set [3] is 8.5 µM·h. Further, in data set [4] (male, mouse, in vivo, single oral dose 10 mg/kg, remained above for 4 hours, read-out: gastrocnemius muscle concentrations), the concentration at 4 h is over 0.7 µM. Also, the “mouse plasma exposure at 50 mg/kg relative to well tolerated plasma exposure in humans” value in data set [4] (oral 50 mg/kg in mice versus 8.5 μM*h in humans) was 8.7 fold. Moreover, the Plasma exposure was 10.9 µM·h in data set [4] (single oral dose 10 mg/kg) and 74.3 µM·h in data set [4] (single oral dose 50 mg/kg).
